In patent US10214512B2, “Factor XIA inhibitors” (MERCK SHARP & DOHME CORP., priority 2015, dated 2019):

Columns and labels:
[1] = molecular target: purified Human plasma Kallikrein (Homo sapiens (Human), UniProt P03952); test: Kallikrein Assay; format: biochemical; conditions: purified Human plasma Kallikrein 0.5 nM; substrate Acetyl-K-P-R-AFC; 50 mM HEPES pH 7.4; Ki from IC50 by Cheng Prusoff
Protocol: (§1) The effectiveness of a compound of the present invention as an inhibitor of Kallikrein can be determined using a relevant purified serine protease, and an appropriate synthetic substrate. The rate of hydrolysis of the chromogenic or fluorogenic substrate by the relevant serine protease was measured both in the absence and presence of compounds of the present invention. Assays were conducted at rt or at 37° C. […] A decrease in the rate of fluorescence change in the presence of inhibitor is indicative of enzyme inhibition. Such methods are known to one skilled in the art. The results of this assay are expressed as the inhibitory constant, Ki.
Kallikrein determinations were made in 50 mM HEPES buffer at pH 7.4 containing 150 mM NaCl, 5 mM CaCl2, and 0.1% PEG 8000 (polyethylene glycol; Fisher Scientific). Determinations were made using purified Human plasma Kallikrein at a final concentration of 0.5 nM (Enzyme Research Laboratories) and the synthetic substrate, Acetyl-K-P-R-AFC (Sigma # C6608) at a concentration of […].
Times required to achieve equilibration between enzyme and inhibitor were determined in control experiments. […] IC50 was determined by inflection point from a four parameter logistic curve fit. Ki was calculated using the Cheng Prusoff equation, Ki=IC50/(1+([S]/Km)).

[2] = molecular target: purified human Factor XIa (Homo sapiens (Human), UniProt P03951); test: Factor XIa Assay; format: biochemical; conditions: purified human Factor XIa 40 pM; substrate Z-Gly-Pro-Arg-AFC 100 μM; 50 mM HEPES pH 7.4; read-out: Human FXIa Ki
purified human Factor XIa, sequence (P03951 388-625): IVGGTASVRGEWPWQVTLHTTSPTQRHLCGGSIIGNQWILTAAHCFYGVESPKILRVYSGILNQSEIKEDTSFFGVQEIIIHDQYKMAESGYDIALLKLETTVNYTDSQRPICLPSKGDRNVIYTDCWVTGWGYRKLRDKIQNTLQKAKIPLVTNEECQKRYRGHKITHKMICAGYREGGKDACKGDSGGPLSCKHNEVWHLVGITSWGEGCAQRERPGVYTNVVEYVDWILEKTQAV
purified human Factor XIa, sequence (P03951 19-387 partner): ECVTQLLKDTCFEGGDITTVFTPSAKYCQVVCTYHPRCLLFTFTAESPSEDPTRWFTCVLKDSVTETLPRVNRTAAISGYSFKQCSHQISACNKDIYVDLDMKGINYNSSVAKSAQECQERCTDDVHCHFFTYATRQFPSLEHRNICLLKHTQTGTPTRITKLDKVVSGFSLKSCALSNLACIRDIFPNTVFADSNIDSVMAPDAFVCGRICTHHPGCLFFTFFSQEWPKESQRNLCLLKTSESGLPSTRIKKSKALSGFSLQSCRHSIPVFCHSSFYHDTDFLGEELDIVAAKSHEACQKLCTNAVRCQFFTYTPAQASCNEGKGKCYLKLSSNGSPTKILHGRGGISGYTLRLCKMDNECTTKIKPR
Protocol: as §1, with “Coagulation Factor XIa” for “Kallikrein”
Factor XIa determinations were made in 50 mM HEPES buffer at pH 7.4 containing 150 mM NaCl, 5 mM CaCl2, and 0.1% PEG 8000 (polyethylene glycol; JT Baker or Fisher Scientific). Determinations were made using purified human Factor XIa at a final concentration of 40 pM (Sekisui Diagnostics) and he synthetic substrate, Z-Gly-Pro-Arg-AFC, TFA salt (Sigma #C0980) at a concentration of 100 μM.
Times required to achieve equilibration between enzyme and inhibitor were determined in control experiments. Initial velocities of product formation in the absence (Vo) or presence of inhibitor (Vi) were measured. Assuming competitive inhibition, and that unity is negligible compared Km/[S], [I]/e, and [I]/e (where [S], [I], and e respectively represent the total concentrations, of substrate, inhibitor and enzyme), the equilibrium constant (Ki) for dissociation of the inhibitor from the enzyme can be obtained from the dependence of Vo/Vi on [I] shown in the following equation.

purified Human plasma Kallikrein, sequence (P03952 391-638): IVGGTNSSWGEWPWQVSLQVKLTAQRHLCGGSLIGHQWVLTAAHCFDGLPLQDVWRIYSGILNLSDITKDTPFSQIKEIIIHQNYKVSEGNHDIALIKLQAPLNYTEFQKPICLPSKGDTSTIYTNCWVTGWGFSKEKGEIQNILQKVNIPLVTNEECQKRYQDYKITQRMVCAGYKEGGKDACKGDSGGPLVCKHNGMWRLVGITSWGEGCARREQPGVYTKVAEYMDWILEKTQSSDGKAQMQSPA
purified Human plasma Kallikrein, sequence (P03952 20-390 partner): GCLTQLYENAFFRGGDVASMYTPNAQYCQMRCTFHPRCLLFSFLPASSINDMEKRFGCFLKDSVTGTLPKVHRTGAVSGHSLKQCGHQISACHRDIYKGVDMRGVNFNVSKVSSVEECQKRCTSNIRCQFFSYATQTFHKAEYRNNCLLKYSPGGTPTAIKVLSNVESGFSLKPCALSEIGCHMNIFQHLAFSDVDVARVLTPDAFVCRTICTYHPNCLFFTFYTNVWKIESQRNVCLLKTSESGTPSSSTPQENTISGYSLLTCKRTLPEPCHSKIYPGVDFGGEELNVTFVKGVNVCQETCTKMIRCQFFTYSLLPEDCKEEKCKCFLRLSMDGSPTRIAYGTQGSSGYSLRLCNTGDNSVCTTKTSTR

Ki [1] [nM]	Ki [2] [nM]	Compound
0.95	–	COC(=O)Nc1ccc2c(c1)NC(=O)CCCC[C@H](c1ccc(-c3cc(Cl)ccc3-n3cc(C4CC4)nn3)c[n+]1[O-])c1cccc-2c1 (single isomer, unassigned) [Example 38]
2.09	–	COC(=O)Nc1ccc2c(c1)NC(=O)CCCC[C@H](c1ccc(-c3c(F)ccc(Cl)c3F)c[n+]1[O-])c1ccc(F)c-2c1 (single isomer, unassigned) [Example 68]
1.69	–	COC(=O)Nc1ccc2c(c1)NC(=O)[C@H](C)CCC[C@H](c1ccc(-c3cc(Cl)ccc3OC(F)(F)F)c[n+]1[O-])c1cccc-2c1 (single isomer, unassigned) [Example 77-a]
0.7	–	COC(=O)Nc1ccc2c(c1)NC(=O)CCCC[C@H](c1ccc(-c3cc(Cl)ccc3-c3cnco3)c[n+]1[O-])c1cccc-2c1 (single isomer, unassigned) [Example 35]
–	164	COC(=O)Nc1ccc2c(c1)NC(=O)CCCCC(c1ccc(-c3c(F)ccc(Cl)c3F)cn1)c1cc-2ncn1 (centres unmarked) [Example 64, methyl (9-(5-(3-chloro-2,6-difluorophenyl)pyridin-2-yl)-4-oxo-3-aza-1(4,6)-pyrimidina-2(1,2)-benzenacyclononaphane-2^4-yl)carbamate]
–	> 875	C[C@H]1CCC[C@@H](c2ccc(-c3cc(Cl)ccc3-n3cc(Cl)nn3)c[n+]2[O-])c2cccc(c2)-c2c(cnn2C(F)F)NC1=O (single isomer, unassigned) [Example 166-d]
–	11	O=C1CCCCC(c2ccc(-c3c(-n4cc(C(=O)O)nn4)ccc(Cl)c3F)cn2)c2cc(ncc2F)-c2cc(F)ccc2N1 (single isomer, unassigned) [Example 91-a]
–	6.8	COC(=O)Nc1ccc2c(c1)NC(=O)CCCCC(c1ccc(-c3c(F)ccc(Cl)c3F)c[n+]1[O-])c1cnn-2c1 (racemic) [Example 162, (Z)-5-(3-chloro-2,6-difluorophenyl)-2-(2^5-((methoxycarbonyl)amino)-4-oxo-1^1H-3-aza-1(1,4)-pyrazola-2(1,2)-benzenacyclononaphane-9-yl)pyridine 1-oxide]
–	33	COC(=O)Nc1ccc2c(c1)NC(=O)CCCCC(c1ccc(-c3c(F)ccc(Cl)c3F)cn1)c1cc-2ccn1 (centres unmarked) [Example 62, methyl (9-(5-(3-chloro-2,6-difluorophenyl)pyridin-2-yl)-4-oxo-3-aza-1(4,2)-pyridina-2(1,2)-benzenacyclononaphane-2^4-yl)carbamate]
–	11.9	C[C@H]1CCC[C@H](c2ccc(-c3ccccc3-n3cc(Cl)nn3)c[n+]2[O-])c2cccc(c2)-c2c(cnn2C(F)F)NC1=O (single isomer, unassigned) [Example 172-b]
–	> 875	COC(=O)Nc1ccc2c(c1)NC(=O)CCCCC(c1ccc(-c3c(F)ccc(Cl)c3F)cn1)c1cc(F)cc-2c1 (centres unmarked) [Example 53, methyl (9-(5-(3-chloro-2,6-difluorophenyl)pyridin-2-yl)-1^5-fluoro-4-oxo-3-aza-1(1,3),2(1,2)-dibenzenacyclononaphane-2^4-yl)carbamate]
–	83.8	O=C1CCCCC(c2ccc(-c3cc(Cl)ccc3-n3cnnn3)cn2)c2nc(c[nH]2)-c2cc(F)ccc2N1 (single isomer, unassigned) [Example 10-a, (Z)-9-(5-(5-chloro-2-(1H-tetrazol-1-yl)phenyl)pyridin-2-yl)-2^5-fluoro-1^1H -3-aza-1(4,2)-imidazola-2(1,2)-benzenacyclononaphan-4-one]
–	0.55	COC(=O)Nc1ccc2c(c1)NC(=O)CCCC[C@H](c1ccc(-c3c(F)ccc(Cl)c3F)c[n+]1[O-])c1cc(F)cc-2c1 (single isomer, unassigned) [Example 67]
–	> 875	COC(=O)Nc1ccc2c(c1)NC(=O)CCCCC(c1ccc(-c3c(F)ccc(Cl)c3F)cn1)c1cc(F)c(F)c-2c1 (centres unmarked) [Example 55, methyl (9-(5-(3-chloro-2,6-difluorophenyl)pyridin-2-yl)-1^5,1^6-difluoro-4-oxo-3-aza-1(1,3),2(1,2)-dibenzenacyclononaphane-2^4-yl)carbamate]
–	342	COC(=O)Nc1ccc2c(c1)NC(=O)CCCCC(c1ccc(-c3c(F)ccc(Cl)c3F)cn1)c1cc-2c(F)cn1 (centres unmarked) [Example 60, methyl (9-(5-(3-chloro-2,6-difluorophenyl)pyridin-2-yl)-1^5-fluoro-4-oxo-3-aza-1(4,2)-pyridina-2(1,2)-benzenacyclononaphane-2^4-yl)carbamate]
–	504	O=C1CCCC[C@@H](c2ccc(-c3cc(Cl)ccc3-n3cnnn3)cn2)c2cccc(c2)-c2cc(F)ccc2N1 [Example 1-b, (R)-9-(5-(5-Chloro-2-(1H-tetrazol-1-yl)phenyl)pyridin-2-yl)-2^5-fluoro-3-aza-1(1,3),2(1,2)-dibenzenacyclononaphan-4-one]
–	0.24	O=C1CCCC[C@H](c2ccc(-c3c(F)ccc(Cl)c3F)c[n+]2[O-])c2cccc(c2)-c2ccc(NC(=O)OCCO)cc2N1 [Example 46, (S)-5-(3-chloro-2,6-difluorophenyl)-2-(2^4-(((2-hydroxyethoxy)carbonyl)amino)-4-oxo-3-aza-1(1,3),2(1,2) -dinenzenacyclononaphane-9-yl)pyridine 1-oxide]

Continued, compound first:

Compound	Ki [1] [nM]	Ki [2] [nM]
COC(=O)Nc1ccc2c(c1)NC(=O)[C@@H](C)CCC[C@@H](c1ccc(-c3cc(F)ccc3OC(F)(F)F)c[n+]1[O-])c1nc-2c(C)[nH]1 (single isomer, unassigned) [Example 149-b]	53.7	–
COC(=O)Nc1ccc2c(c1)NC(=O)CCCC[C@H](c1ccc(-c3c(OC(F)F)ccc(F)c3F)c[n+]1[O-])c1nc-2c(C)[nH]1 (single isomer, unassigned) [Example 130]	0.66	–
COC(=O)Nc1ccc2c(c1)NC(=O)CCCC[C@H](c1ccc(-c3c(F)cccc3OC(F)F)c[n+]1[O-])c1nc-2c(C)[nH]1 (single isomer, unassigned) [Example 126]	2.03	–
COC(=O)Nc1ccc2c(c1)NC(=O)C(C)CCCC(c1ccc(-c3c(F)ccc(Cl)c3F)c[n+]1[O-])c1nc-2c[nH]1 (single isomer, unassigned) [Example 114-c, (Z)-5-(3-chloro-2,6-difluorophenyl)-2-(2^4-((methoxycarbonyl)amino)-5-methyl-4-oxo-1^1H-3-aza-1(4,2)-imidazola-2(1,2) -benzenacyclononaphane-9-yl)pyridine 1-oxide]	0.78	–
COC(=O)Nc1ccc2c(c1)NC(=O)CC[C@@H](C)C[C@H](c1ccc(-c3c(F)ccc(Cl)c3F)c[n+]1[O-])c1nc-2c(C)[nH]1 (single isomer, unassigned) [Example 151-a]	0.16	–
COC(=O)Nc1ccc2c(c1)NC(=O)CCCC[C@H](c1ccc(-c3c(F)cccc3-n3cc(C(F)(F)F)cn3)c[n+]1[O-])c1nc-2c[nH]1 (single isomer, unassigned) [Example 115]	331	–
COC(=O)Nc1ccc2c(c1)NC(=O)[C@@H](C)CCC[C@H](c1ccc(-c3c(OC(F)F)ccc(F)c3F)c[n+]1[O-])c1nc-2c(C)[nH]1 (single isomer, unassigned) [Example 150-c]	1.5	–
COC(=O)Nc1ccc2c(c1)NC(=O)[C@@H](C)CCC[C@H](c1ccc(-c3c(F)cccc3F)c[n+]1[O-])c1nc-2c(C2CC2)[nH]1 (single isomer, unassigned) [Example 145-c]	1.1	–
CCOC(=O)Nc1ccc2c(c1)NC(=O)CCCC[C@H](c1ccc(-c3c(F)ccc(Cl)c3F)c[n+]1[O-])c1nc-2c(C)[nH]1 (single isomer, unassigned) [Example 134]	–	0.17
COC(=O)Nc1ccc2c(c1)NC(=O)CCCC[C@H](c1ccc(-c3ccccc3-n3cc(C)cn3)c[n+]1[O-])c1nc-2c(C)[nH]1 (single isomer, unassigned) [Example 140]	–	40
COC(=O)Nc1ccc2c(c1)NC(=O)C[C@H]1C[C@@H]1C[C@H](c1ccc(-c3c(F)ccc(Cl)c3F)c[n+]1[O-])c1nc-2c(C)[nH]1 (single isomer, unassigned) [Example 154]	–	0.4
COC(=O)Nc1ccc2c(c1)NC(=O)[C@H](C)CCC[C@@H](c1ccc(-c3c(F)cccc3F)c[n+]1[O-])c1nc-2c(C)[nH]1 (single isomer, unassigned) [Example 143-d]	–	18.6
